{"source": "paper PMC7385556", "about": "(ACS chemical biology, 2020)", "tested_on": "Mtb K204", "type": "cell-based, Mycobacterium tuberculosis", "conditions": "KAN alone, no inhibitor", "note": "Marks after values point to notes of the source that are not given here."}
{"smiles": "NC[C@H]1O[C@H](O[C@H]2[C@H](O)[C@@H](O[C@H]3O[C@H](CO)[C@@H](O)[C@H](N)[C@H]3O)[C@H](N)C[C@@H]2N)[C@H](O)[C@@H](O)[C@@H]1O", "note": "[KAN, kanamycin]", "values": [{"measurement": "MICKAN in K204", "value": ">10, >10^d μg/mL"}]}
